Consider 6 compounds from ChEMBL document CHEMBL1201862, “PubChem BioAssay data set” (2004).

For orientation: IC50 means the point on the concentration scale where inhibition reaches its midpoint. By CC50 is commonly meant the concentration giving 50% cytotoxicity. By AC50 is commonly meant the midpoint of the concentration-response curve, whichever way the signal moves. As a reminder, the EC50 is the concentration that produces a half-maximal response.

Calls of active or inactive are those of the source.

Experiment [1] has as its target T1, Sentrin-specific protease 8 (Homo sapiens, UniProt Q96LD8).
T1 sequence (Q96LD8 whole entry): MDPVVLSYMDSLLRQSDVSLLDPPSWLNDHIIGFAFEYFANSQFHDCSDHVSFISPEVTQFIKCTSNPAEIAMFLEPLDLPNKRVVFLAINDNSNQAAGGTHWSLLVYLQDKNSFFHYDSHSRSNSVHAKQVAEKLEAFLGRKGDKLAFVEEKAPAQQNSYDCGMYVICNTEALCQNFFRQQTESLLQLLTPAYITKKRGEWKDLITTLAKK
Briefly: SENP8 protease inhibitors, SAR follow-up, biochemical, luminescence (AID 504501). It counts as functional.

Experiment [2] concerns the target T1, Sentrin-specific protease 8. Description: SENP8 protease inhibitors, SAR follow-up, biochemical, luminescence, set 2 (AID 588601). Type of experiment: functional.
The target in experiment [3] is T2, Caspase-3 (Homo sapiens, UniProt P42574).
T2 sequence (P42574 whole entry): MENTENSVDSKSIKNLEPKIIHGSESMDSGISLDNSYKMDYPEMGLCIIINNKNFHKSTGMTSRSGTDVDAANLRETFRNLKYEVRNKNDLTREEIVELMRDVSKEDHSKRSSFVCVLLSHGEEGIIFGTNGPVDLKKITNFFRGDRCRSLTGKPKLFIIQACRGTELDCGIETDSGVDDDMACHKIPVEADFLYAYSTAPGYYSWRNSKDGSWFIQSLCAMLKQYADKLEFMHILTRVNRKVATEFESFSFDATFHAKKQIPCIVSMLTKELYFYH
Description: SAR Analysis of small molecule inhibitors of Sentrin-specific proteases (SENPs) using a Caspase-3 Selectivity assay. [Related pubchem assays (depositor defined):AID2540, AID2599, AID434973, AID489001]. It counts as functional.

Experiment [4] has as its target T3, Sentrin-specific protease 7 (Homo sapiens, UniProt Q9BQF6).
T3 sequence (Q9BQF6 whole entry): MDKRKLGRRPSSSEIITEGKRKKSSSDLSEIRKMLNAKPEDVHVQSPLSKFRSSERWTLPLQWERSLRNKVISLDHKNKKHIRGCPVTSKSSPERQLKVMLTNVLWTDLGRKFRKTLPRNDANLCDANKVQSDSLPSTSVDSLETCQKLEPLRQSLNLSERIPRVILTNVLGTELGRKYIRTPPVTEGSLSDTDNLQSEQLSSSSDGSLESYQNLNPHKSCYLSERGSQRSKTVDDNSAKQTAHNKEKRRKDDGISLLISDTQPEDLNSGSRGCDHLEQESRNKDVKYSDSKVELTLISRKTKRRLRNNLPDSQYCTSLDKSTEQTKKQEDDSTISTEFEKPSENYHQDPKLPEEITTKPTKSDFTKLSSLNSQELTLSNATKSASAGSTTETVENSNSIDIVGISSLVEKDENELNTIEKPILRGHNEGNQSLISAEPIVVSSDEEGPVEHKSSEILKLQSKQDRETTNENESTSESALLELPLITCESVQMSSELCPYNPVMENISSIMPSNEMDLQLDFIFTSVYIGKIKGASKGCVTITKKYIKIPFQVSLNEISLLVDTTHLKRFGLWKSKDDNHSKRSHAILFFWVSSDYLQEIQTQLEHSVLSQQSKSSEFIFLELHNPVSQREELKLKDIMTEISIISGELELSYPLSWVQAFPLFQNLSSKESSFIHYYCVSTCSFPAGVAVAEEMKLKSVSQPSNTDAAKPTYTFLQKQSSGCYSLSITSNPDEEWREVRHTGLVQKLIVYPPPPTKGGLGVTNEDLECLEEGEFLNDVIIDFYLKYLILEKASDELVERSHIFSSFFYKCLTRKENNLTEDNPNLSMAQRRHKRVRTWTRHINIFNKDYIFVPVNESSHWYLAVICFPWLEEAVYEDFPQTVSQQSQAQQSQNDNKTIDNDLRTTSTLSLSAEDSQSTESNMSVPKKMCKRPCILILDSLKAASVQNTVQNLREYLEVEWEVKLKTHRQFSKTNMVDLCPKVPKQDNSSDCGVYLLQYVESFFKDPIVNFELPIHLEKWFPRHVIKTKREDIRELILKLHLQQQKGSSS
Description: SENP7 protease inhibitors, SAR follow-up, biochemical, luminescence, set 2 (AID 588600). It counts as functional.

The target in experiment [5] is T4, Sentrin-specific protease 6 (Homo sapiens, UniProt Q9GZR1).
T4 sequence (Q9GZR1 whole entry): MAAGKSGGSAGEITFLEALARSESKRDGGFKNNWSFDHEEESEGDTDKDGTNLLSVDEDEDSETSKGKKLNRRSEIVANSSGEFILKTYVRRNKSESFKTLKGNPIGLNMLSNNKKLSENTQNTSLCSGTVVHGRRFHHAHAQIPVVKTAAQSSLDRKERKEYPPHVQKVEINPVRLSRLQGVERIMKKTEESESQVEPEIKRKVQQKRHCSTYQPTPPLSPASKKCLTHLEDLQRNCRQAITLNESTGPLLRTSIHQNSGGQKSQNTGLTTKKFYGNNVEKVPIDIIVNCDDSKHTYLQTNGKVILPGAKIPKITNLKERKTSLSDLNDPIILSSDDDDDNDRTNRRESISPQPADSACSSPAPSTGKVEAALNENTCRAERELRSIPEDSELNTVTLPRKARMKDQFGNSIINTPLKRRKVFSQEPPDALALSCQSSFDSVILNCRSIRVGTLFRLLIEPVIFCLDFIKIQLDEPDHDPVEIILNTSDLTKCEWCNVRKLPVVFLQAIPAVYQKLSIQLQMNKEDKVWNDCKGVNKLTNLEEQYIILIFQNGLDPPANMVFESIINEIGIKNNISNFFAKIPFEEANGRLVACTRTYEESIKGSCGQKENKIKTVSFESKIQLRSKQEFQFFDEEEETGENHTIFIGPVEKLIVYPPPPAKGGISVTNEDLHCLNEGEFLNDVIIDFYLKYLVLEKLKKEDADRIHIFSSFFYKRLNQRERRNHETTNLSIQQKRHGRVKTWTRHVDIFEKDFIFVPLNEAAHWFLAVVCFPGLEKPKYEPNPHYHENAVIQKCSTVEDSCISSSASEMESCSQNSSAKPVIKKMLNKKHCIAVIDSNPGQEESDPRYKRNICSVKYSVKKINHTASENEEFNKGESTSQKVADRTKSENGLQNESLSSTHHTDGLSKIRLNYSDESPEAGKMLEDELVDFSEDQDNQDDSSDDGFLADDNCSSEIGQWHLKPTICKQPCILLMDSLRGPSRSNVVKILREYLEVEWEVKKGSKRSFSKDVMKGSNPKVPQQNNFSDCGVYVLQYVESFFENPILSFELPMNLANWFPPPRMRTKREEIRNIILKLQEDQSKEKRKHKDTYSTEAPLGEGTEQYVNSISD
Briefly: SAR Analysis of small molecule inhibitors of Sentrin-specific protease 6 (SENP6) using a Luminescent assay. [Related pubchem assays (depositor defined):AID2582, AID2599]. It counts as functional.

The target of experiment [6] is T4, Sentrin-specific protease 6. Description: SENP6 protease inhibitors, SAR follow-up, biochemical, luminescence, set 2 (AID 588598). Type of experiment: functional.
The target of experiment [7] is T3, Sentrin-specific protease 7. Briefly: SENP7 protease inhibitors, SAR follow-up, biochemical, luminescence (AID 504497). It counts as functional.
Experiment [8] concerns Vero. Briefly: Vero cell cytotoxicity, cytotoxicity control for flavivirus capping enzyme inhibitors (AID 588742). Type of experiment: functional. To be noted: Chlorocebus sabaeus.
The target in experiment [9] is Genome polyprotein (dengue virus type 2, UniProt P29990). Briefly: Dengue-2 NS5 methyltransferase inhibitors, primary screen, biochemical, confirmation dose response (AID 588689). It counts as functional.
Experiment [10] has as its target T5, Long-chain-fatty-acid--AMP ligase FadD28 (Mycobacterium tuberculosis, UniProt P9WQ59).
T5 sequence (P9WQ59 whole entry): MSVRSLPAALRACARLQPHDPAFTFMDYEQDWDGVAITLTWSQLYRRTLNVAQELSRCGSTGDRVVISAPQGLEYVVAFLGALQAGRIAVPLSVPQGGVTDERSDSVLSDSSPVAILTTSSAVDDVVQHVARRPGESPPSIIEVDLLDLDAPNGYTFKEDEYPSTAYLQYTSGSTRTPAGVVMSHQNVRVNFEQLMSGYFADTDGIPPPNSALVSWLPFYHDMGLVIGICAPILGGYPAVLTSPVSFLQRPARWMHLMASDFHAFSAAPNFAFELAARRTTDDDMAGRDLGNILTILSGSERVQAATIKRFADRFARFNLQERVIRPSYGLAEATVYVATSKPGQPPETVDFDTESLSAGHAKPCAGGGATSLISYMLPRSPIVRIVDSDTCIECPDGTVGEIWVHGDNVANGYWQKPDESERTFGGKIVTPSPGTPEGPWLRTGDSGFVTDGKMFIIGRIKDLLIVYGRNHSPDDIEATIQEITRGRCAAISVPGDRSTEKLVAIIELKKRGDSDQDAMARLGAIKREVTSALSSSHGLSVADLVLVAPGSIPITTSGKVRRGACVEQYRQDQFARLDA
Briefly: Fluorescence polarization aasay to screen for inhibitors that compete for the binding of FadD28 to a bisubstrate Measured in Biochemical System Using Plate Reader - 2147-01_Inhibitor_Dose_CherryPick_Activity. Type of experiment: functional, Mycobacterium tuberculosis H37Rv.

Experiment [11] can be described thus: cytotoxicity in HEK-293T cells, dose response, cytotoxicity control for BCR NF-kB inhibitor project, luminescence, B-cell screen hits (AID 489021).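 Further: HEK-293T cells carrying an NF-kB luciferase reporter; cells exposed to compound for about 14 hours before viability readout.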 Type of experiment: functional, cell-based.
Experiment [12] concerns the target Luciferin 4-monooxygenase (Photinus pyralis, UniProt P08659). Briefly: firefly luciferase enzyme inhibitors, dose response, biochemical, dry powder samples, plate reader (AID 588451).
Experiment [13] relates to H4. Briefly: inhibitors of control reporter signal in H4 cells – cell-based, plate reader, dry powder samples, counter-screen for prion reporter project, dose response (AID 540255). Type of experiment: functional. To be noted: Homo sapiens.
The test system of experiment [14] is H4. Description: Amyloid Precursor 5' UTR neuroblastoma cell reporter line Measured in Cell-Based System Using Plate Reader - 2078-04_Inhibitor_Dose_DryPowder_Activity. [Related pubchem assays (depositor defined):AID488894]. It counts as functional. Conditions: Homo sapiens.
Experiment [15] relates to H4. Briefly: Inhibitors of Prion Protein 5' UTR mRNA Measured in Cell-Based System Using Plate Reader - 2078-01_Inhibitor_Dose_DryPowder_Activity. [Related pubchem assays (depositor defined):AID488894]. Type of experiment: functional. Conditions: Homo sapiens.
For experiment [16], the target named is T6, Neuropeptides B/W receptor type 1 (Homo sapiens, UniProt P48145).
T6 sequence (P48145 whole entry): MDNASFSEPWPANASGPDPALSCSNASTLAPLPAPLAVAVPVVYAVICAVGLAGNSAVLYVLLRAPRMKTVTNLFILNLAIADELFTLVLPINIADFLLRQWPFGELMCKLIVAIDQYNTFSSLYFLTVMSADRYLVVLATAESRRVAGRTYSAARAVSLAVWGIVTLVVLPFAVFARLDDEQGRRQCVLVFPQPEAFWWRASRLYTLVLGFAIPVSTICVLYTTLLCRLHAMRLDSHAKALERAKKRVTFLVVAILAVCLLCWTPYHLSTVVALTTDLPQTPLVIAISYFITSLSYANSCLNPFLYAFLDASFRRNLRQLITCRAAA
Description: GPR7 antagonist potency, late-stage follow-up, cell-based, fluorescence, dose response, set 5 (AID 588566). Type of experiment: functional.

Experiment [17] addresses Melanin-concentrating hormone receptor 1 (Homo sapiens, UniProt Q99705). Description: Late-stage fluorescence-based counterscreen for antagonists of the G-protein coupled receptor 7 (GPR7): cell-based dose response assay to identify antagonists of the melanin-concentrating hormone receptor 1 (MCHR1) Set 5. Type of experiment: functional. On the technique in general: Counterscreens check selectivity or assay interference.

In experiment [18] the test system is BJ. Description: cytotoxicity toward BJ-TERT fibroblasts, dose response, cell-based, RAS-independent, luminescence (AID 1933). It counts as functional. Conditions: Homo sapiens.
Experiment [19] has as its system BJ. Briefly: cells. It counts as functional, cell-based. Conditions: Homo sapiens, read-out: EC50.
In experiment [20] the test system is BJ. Description: cytotoxicity toward BJ-TERT-LT-ST fibroblasts, dose response, cell-based, RAS-independent, luminescence (AID 1935).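 Further: BJ fibroblasts immortalized with TERT plus LT and ST oncogenes.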 It counts as functional. To be noted: Homo sapiens.
Experiment [21] can be described thus: cytotoxicity toward DRD oncogenic fibroblasts, dose response, cell-based, non-viral oncogenic, luminescence (AID 1934). Type of experiment: functional. To be noted: Homo sapiens.
Experiment [22] concerns BJ. Description: cytotoxicity toward Ras-transformed BJeLR fibroblasts, dose response, cell-based, alamar blue fluorescence, cherrypicked samples (AID 2631).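 Further: confirmatory dose-response assay in RAS-dependent BJ fibroblasts engineered with TERT, LT and ST, with cytotoxicity read by fluorescence.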 Type of experiment: functional. Conditions: Homo sapiens. In general terms: Resazurin is reduced to fluorescent resorufin, in cell work by metabolically active cells.

Chain of Melanin-concentrating hormone receptor 1 (Q99705 whole entry): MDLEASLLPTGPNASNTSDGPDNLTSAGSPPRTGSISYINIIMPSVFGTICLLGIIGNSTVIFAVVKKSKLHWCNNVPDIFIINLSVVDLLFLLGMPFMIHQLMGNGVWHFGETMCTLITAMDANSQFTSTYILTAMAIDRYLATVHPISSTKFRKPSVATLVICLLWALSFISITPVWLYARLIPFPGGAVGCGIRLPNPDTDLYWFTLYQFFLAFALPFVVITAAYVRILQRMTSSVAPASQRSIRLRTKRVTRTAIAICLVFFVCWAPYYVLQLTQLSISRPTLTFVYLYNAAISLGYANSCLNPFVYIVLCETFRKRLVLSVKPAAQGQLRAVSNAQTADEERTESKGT
Chain of Genome polyprotein (P29990 2492-3391 limits assumed): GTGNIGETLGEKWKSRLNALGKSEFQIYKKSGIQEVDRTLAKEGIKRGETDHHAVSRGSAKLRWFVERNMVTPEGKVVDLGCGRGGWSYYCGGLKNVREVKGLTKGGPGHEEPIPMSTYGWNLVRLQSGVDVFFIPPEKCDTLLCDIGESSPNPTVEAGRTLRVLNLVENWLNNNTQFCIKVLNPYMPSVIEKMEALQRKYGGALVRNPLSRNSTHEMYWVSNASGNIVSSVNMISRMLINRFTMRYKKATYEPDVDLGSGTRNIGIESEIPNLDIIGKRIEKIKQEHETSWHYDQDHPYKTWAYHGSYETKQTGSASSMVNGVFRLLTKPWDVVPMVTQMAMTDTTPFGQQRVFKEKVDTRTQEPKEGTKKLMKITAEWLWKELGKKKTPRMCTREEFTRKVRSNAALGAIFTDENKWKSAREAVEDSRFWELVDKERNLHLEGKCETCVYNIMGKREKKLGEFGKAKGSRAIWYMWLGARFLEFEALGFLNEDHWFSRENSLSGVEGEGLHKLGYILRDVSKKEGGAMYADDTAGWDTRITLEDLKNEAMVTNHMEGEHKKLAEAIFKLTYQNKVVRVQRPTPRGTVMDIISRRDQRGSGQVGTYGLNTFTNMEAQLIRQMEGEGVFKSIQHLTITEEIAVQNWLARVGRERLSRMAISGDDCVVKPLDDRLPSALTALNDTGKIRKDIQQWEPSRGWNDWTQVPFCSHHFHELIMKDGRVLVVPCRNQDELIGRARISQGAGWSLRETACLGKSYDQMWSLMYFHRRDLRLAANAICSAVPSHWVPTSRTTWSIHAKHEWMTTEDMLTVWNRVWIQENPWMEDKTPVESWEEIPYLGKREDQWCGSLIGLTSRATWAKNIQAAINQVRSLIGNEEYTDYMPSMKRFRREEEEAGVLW
Chain of Luciferin 4-monooxygenase (P08659 whole entry): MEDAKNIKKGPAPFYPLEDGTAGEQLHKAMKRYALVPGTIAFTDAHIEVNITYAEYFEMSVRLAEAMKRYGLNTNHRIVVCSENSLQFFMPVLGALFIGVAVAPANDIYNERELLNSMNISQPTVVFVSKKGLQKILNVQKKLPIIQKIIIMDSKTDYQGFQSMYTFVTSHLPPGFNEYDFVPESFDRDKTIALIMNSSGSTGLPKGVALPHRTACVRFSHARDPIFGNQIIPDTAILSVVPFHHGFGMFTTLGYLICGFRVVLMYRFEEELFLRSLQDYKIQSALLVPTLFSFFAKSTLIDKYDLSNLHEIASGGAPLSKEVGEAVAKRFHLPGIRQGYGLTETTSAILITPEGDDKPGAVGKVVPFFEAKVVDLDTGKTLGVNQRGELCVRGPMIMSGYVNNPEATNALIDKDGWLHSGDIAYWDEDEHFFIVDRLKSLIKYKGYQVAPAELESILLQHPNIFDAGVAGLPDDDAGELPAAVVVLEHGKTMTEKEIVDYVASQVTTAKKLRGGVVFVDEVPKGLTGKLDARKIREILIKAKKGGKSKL

In the case of `Fc1ccc(/C=C/c2noc(-c3ccccc3I)n2)cc1`, the IC50 was 23 µM (active) in [1]; 7.41 µM (active) in experiment [2]; 24 µM (active) in experiment [3]; 7.78 µM (active) in experiment [4]; 20 µM (active) in experiment [5]; 7.33 µM (active) in experiment [6]. Moreover, the IC50 in [7] was 6.4 µM (active).
With `O=C(Nc1sc2c(c1C(=O)O)CCCC2)c1cccc(Cl)c1`, the CC50 in experiment [8] is > 40 µM (active). In addition, the IC50 in experiment [9] was 71.8 µM (active). In addition, in [10], the AC50 is > 100 µM (inactive).
Take `Cc1ccc(NC(=O)O/N=C/c2c(C)nn(C(C)(C)C)c2C)cc1Cl`: in experiment [11], the IC50 is > 80 µM (inactive). Further, the AC50 in experiment [12] was 14.8 µM (active); in [13], 0.237 µM (active); in experiment [14] it was 0.125 µM (active); in experiment [15], 0.099 µM (active).
Consider `O=C(C1CCCCN1Cc1cccc2ccccc12)N1CCN(c2ccc([N+](=O)[O-])cc2)CC1` (centres undefined), for which the IC50 in [16] and in experiment [17] was > 20 µM (inactive) throughout.
Consider `Cc1ccc(/C=C2\SC(=S)N(CC3CCCO3)C2=O)o1` (centres undefined), for which the EC50 was 35.8 µM (inconclusive) in experiment [18]; > 150 µM (not active) in experiment [19]; > 150 µM (not active) in experiment [20]; 16.4 µM (active) in [21]; > 133 µM (inactive) in experiment [22].
Consider `CSc1ccc(Oc2cnn(Cc3cccc4ccccc34)c(=O)c2Cl)cc1`, for which the IC50 in experiment [16] was 4.59 µM (active); in experiment [17], 9.04 µM (active).
